From PMC3080343, “Small lytic peptides escape the inhibitory effect of heparan sulfate on the surface of cancer cells” (BMC Cancer, 2011)
Where two headings read alike, the source gives them in different places. Where a SMILES comes first, the peptide text is derived from it. [ ]: non-standard residue; d: D form. Dip = N[C@H](C(=O)O)C(c1ccccc1)c1ccccc1; Orn = NCCC[C@H](N)C(=O)O

Columns and labels:
[1] = tested on: human red blood cells (RBC); assay type: cell-based; conditions: red cells of human, 1 h
Description: The hemolytic activity of the peptides was determined using freshly isolated human red blood cells (RBC) as previously described. Briefly, venous blood was collected, transferred to a tube containing heparin (10 U/ml) and centrifuged at 1500 rpm for 10 minutes in order to isolate the red blood cells. The red blood cells were washed three times with PBS (35 mM phosphate buffer with 150 mM NaCl, pH 7.4) by centrifugation at 1500 rpm for 10 minutes, and adjusted to 10% hematocrit with PBS. Peptide solutions were added to yield a final concentration range of the peptide from 1000 μg/ml to 1 μg/ml and a red blood cell concentration of 1%. The resulting suspension was incubated with agitation for 1 hour at 37°C. After incubation the suspension was centrifuged at 4000 rpm for 5 minutes, and the released hemoglobin were monitored by measuring the absorbance of the supernatant at 405 nm on a microplate reader (VERSAmax™ Molecular Devices, CA). PBS and 1% Triton X-100 were used as negative and positive controls, respectively. Peptide concentrations corresponding to 50% hemolysis (EC50) were determined from dose-response curves.

[2] = MTT viability assay, MRC-5 fibroblast-like cells; assay type: cell-based; conditions: human
Description: (§1) The colorimetric MTT viability assay was used to investigate the cytotoxic effect of the peptides. The HT-29, MT-1, Kelly, HUVEC and MRC-5 cells were seeded at a concentration of 2 × 10^5 cells/ml, 1.5 × 10^5 cells/ml, 2 × 10^5 cells/ml, 1 × 10^5 cells/ml and 1 × 10^5 cells/ml in a volume of 0.1 ml in 96-well plates, respectively. CHO-K1 and pgsA-745 cells were seeded at a concentration of 1 × 10^5 cells/ml. The cells were allowed to adhere overnight in complete medium. Before adding different concentrations of the peptides (10-500 μg/ml) to the cells, the culture medium was removed and the cells were washed twice in serum-free culture medium. The non-adherent lymphoma cell lines were seeded at a density of 4 × 10^5 cells/ml using serum-free medium. After incubating the cells with peptides for 30 minutes at 37°C, 0.5 mg MTT-solution was added to each well and the incubation was continued for 2 hours. A volume of 70 μl or 130 μl per well was removed from the non-adherent and adherent cells, respectively. In order to dissolve the formazan crystals, 100 μl of 0.04 M HCl in isopropanol was added and the plates were shaken for 1 hour on a Thermolyne Roto Mix (Dubuque, IA) at room temperature. The optical density was measured on a microplate reader (VERSAmax™ Molecular Devices, CA). Cells treated with 1% Triton X-100 in serum-free medium was used as positive control for 100% cell death, whereas cells in serum free medium were used as negative control. Cell survival was determined from the ΔA590 nm relative to the negative control (100% living cells) and expressed as 50% inhibitory concentration (IC50).

MRC-5 = assay: MTT viability assay, MRC-5 fibroblast-like cells; assay type: cell-based; conditions: 2 h
Description: as §1

CHO-K1 cells = assay type: cell-based, Chinese hamster
Description: as §1
In order to investigate whether soluble CS or HS would interfere with the cytotoxic activity, the peptides were added to cultures of CHO-K1 cells together with exogenous CS and HS. […] The cytotoxic activity of LTX-318 was not inhibited in the presence of soluble CS or HS (Figure 5c).

CHO-K1 = assay type: cell-based, Chinese hamster; conditions: 2 h
Description: as §1

pgsA-745 = assay type: cell-based, Chinese hamster; conditions: for IC50: 2 h
Description: as §1

lymphoma cells = assay type: cell-based; conditions: 2 h
Description: as §1

Ramos = assay type: cell-based; conditions: 2 h
Description: as §1

U-266 = assay type: cell-based; conditions: 2 h
Description: as §1

HT-29 = assay type: cell-based; conditions: 2 h
Description: as §1

KMM-1 = assay type: cell-based; conditions: 2 h
Description: as §1

Sudhl-4 = assay type: cell-based; conditions: 2 h
Description: as §1

KMS-5 = assay type: cell-based; conditions: 2 h
Description: as §1

Kelly = assay type: cell-based; conditions: for IC50: 2 h
Description: as §1

MT-1 = assay type: cell-based; conditions: 2 h
Description: as §1

HUVEC = assay type: cell-based, human; conditions: 2 h
Description: as §1

[3] = Affinity chromatography on HS-Sepharose; assay type: binding; conditions: NaCl needed to elute peptide from HS-Sepharose; mean of four experiments
Description: (§2) Two different Sepharose affinity columns were prepared, using HS and CS as ligands. The ligands were mixed with swollen CNBr-activated Sepharose 4B. Non-reactive groups were blocked with 0.1 M Tris-HCl, pH 8.0 and the gel was washed before packing. The peptides were dissolved in 5 mM phosphate-buffer, pH 7.4 at a concentration of 0.5 mg/ml, and 50 μl samples were applied. A gradient of NaCl was used to elute the different peptides from the columns using a GradiFrac from Amersham Pharmacia Biotech (Uppsala, Sweden) at a flow rate of 1.0 ml/min. The peptides were detected using a monitor UV-1 from Amershan Pharmacia Biotech (Uppsala, Sweden).

[4] = Affinity chromatography on CS-Sepharose; assay type: binding; conditions: NaCl needed to elute peptide from CS-Sepharose; mean of four experiments
Description: as §2

[5] = tested on: human red blood cells (RBC); design: method as in Eliassen et al. [69]; conditions: hemolysis; ref Eliassen et al. [69]; cited from earlier work
[6] = tested on: carcinoma cell lines HT-29 and MT-1; assay: MTT viability assay, carcinoma cell lines HT-29 and MT-1; assay type: cell-based; conditions: selectivity versus HUVEC and MRC-5
Description: as §1, with “Cells treated with 1% Triton X-100 in serum-free medium was used as positive control for 100% cell death, whereas cells in serum free medium were used as negative control. Cell survival was determined from the ΔA590 nm relative to the negative control (100% living cells) and expressed as 50% inhibitory concentration (IC50).” left out

tumor = tested on: tumor; design: method as in PMID 20422410; conditions: cited from earlier work

SMILES | IC50 [1] | IC50 at 30 min [2] | IC50 (CHO-K1) | IC50 (pgsA-745) | IC50 (lymphoma cells) | IC50 (Ramos) | IC50 (U-266) | IC50 (HT-29) | IC50 (KMM-1) | IC50 (Sudhl-4) | IC50 (KMS-5) | IC50 (Kelly) | IC50 (MT-1) | IC50 (HUVEC) | Elution concentration from HS [3] | Elution concentration from CS [4] | inhibitory effect of soluble CS and HS on cytotoxic activity (CHO-K1 cells) | inhibitory effect of soluble HS on cytotoxic activity compared to CS (CHO-K1 cells) | other results
NCCC[C@H](NC(=O)[C@H](Cc1c[nH]c2ccccc12)NC(=O)[C@H](Cc1c[nH]c2ccccc12)NC(=O)[C@H](CCCN)NC(=O)[C@H](CCCN)NC(=O)[C@@H](NC(=O)[C@H](Cc1c[nH]c2ccccc12)NC(=O)[C@H](CCCN)NC(=O)[C@@H](N)CCCN)C(c1ccccc1)c1ccccc1)C(N)=O [LTX-318, OOWDipOOWWO-NH2] (H-[Orn][Orn]W[Dip][Orn][Orn]WW[Orn]-NH2) | > 695 µM | > 347 µM | 145 ± 6 µM | 176 ± 3 µM | 73 to 106 µM | 82 ± 11 µM | 106 ± 17 µM | 248 ± 5 µM | 111 ± 1 µM | 110 ± 5 µM | 73 ± 5 µM | 78 ± 7 µM | 216 ± 36 µM | > 347 µM |  |  |  |  | IC50 against fibroblast cells (no IC50 value at the highest concentration tested) (MRC-5): > 500 µg/mL; cytotoxic activity in the presence of soluble CS or HS (CHO-K1 cells): not inhibited; IC50 against endothelial cells (no IC50 value at the highest concentration tested) (HUVEC): > 500 µg/mL
CC[C@H](C)[C@@H]1NC(=O)[C@H](CO)NC(=O)[C@@H]2CCCN2C(=O)[C@H](C)NC(=O)CNC(=O)[C@H](CC(C)C)NC(=O)[C@H](CCCCN)NC(=O)[C@H](CCCCN)NC(=O)[C@H](CCSC)NC(=O)[C@H](CCCNC(=N)N)NC(=O)[C@H](Cc2c[nH]c3ccccc23)NC(=O)[C@H](CCC(N)=O)NC(=O)[C@H](Cc2c[nH]c3ccccc23)NC(=O)[C@H](CCCNC(=N)N)NC(=O)[C@H](CCCNC(=N)N)NC(=O)[C@@H](NC(=O)[C@H](CCCCN)NC(=O)[C@@H](N)Cc2ccccc2)CSSC[C@@H](C(=O)N[C@H](C(=O)N[C@@H](CCCNC(=N)N)C(=O)N[C@@H](CCCNC(=N)N)C(=O)N[C@@H](C)C(=O)N[C@@H](Cc2ccccc2)C(=O)O)C(C)C)NC(=O)[C@H]([C@@H](C)O)NC1=O [LfcinB, bovine lactoferricin, reference compound] |  |  |  |  |  |  |  |  |  |  |  |  |  |  | 417 ± 4 mM NaCl | 130 ± 9 mM NaCl |  |  | IC50 at 30 min ([2]; MTT, 30 min incubation, serum-free, read-out: MRC-5 IC50): > 160 µM; IC50 [5]: > 500 µM
NCCCC[C@H](NC(=O)[C@H](Cc1c[nH]c2ccccc12)NC(=O)[C@H](CCCCN)NC(=O)[C@H](CCCCN)NC(=O)[C@@H](NC(=O)[C@H](Cc1c[nH]c2ccccc12)NC(=O)[C@H](CCCCN)NC(=O)[C@H](CCCCN)NC(=O)[C@@H](N)Cc1c[nH]c2ccccc12)C(c1ccccc1)c1ccccc1)C(N)=O [LTX-302, WKKWDipKKWK-NH2] (H-WKKW[Dip]KKWK-NH2; N-terminus assumed) | > 695 µM | 126 ± 11 µM | 42 ± 7 µM | 54 ± 2 µM | 31 to 46 µM | 30 ± 2 µM | 36 ± 6 µM | 75 ± 5 µM | 40 ± 6 µM | 46 ± 6 µM | 31 µM | 28 µM | 73 ± 2 µM | 123 ± 9 µM | 330 ± 9 mM NaCl | 187 ± 13 mM NaCl | only a negligible inhibitory effect | much higher inhibitory effect | Ratio (IC50) pgsA-745/CHO-K1 (pgsA-745): 1.28; fold higher activity against carcinoma cell lines in comparison to endothelial and fibroblast cells [6]: ~ 2 fold; tumor response after intratumoral injection (tumor): complete regression of the tumor; fold higher activity against neuroblastoma cell line in comparison to endothelial and fibroblast cells (Kelly; selectivity versus HUVEC and MRC-5): ~ 4.5 fold
NCCCC[C@H](NC(=O)[C@@H](NC(=O)[C@H](Cc1c[nH]c2ccccc12)NC(=O)[C@H](CCCCN)NC(=O)[C@H](CCCCN)NC(=O)[C@H](Cc1c[nH]c2ccccc12)NC(=O)[C@H](Cc1c[nH]c2ccccc12)NC(=O)[C@H](CCCCN)NC(=O)[C@@H](N)CCCCN)C(c1ccccc1)c1ccccc1)C(N)=O [LTX-315, KKWWKKWDipK-NH2] (H-KKWWKKW[Dip]K-NH2) | > 695 µM | 41 ± 3 µM | 22 ± 5 µM | 22 ± 3 µM | 10 to 23 µM | 10 ± 1.7 µM | 13 ± 1.5 µM | 38 ± 3 µM | 17 ± 2 µM | 23 ± 2 µM | 10 ± 1.5 µM | 14 ± 1 µM | 31 ± 3 µM | 28 ± 1 µM |  |  | only a negligible inhibitory effect | much higher inhibitory effect | EC50 (50% hemolysis) [1]: > 1000 µg/mL
